# Experimental data taken from patent US12544374B2, “AZA-quinoline compounds and uses thereof” (Novartis AG, priority 2019, dated 2026).
# Columns and labels:
# [1] = target: wild type PRC2 (wtPRC2) complex (Homo sapiens (Human), UniProt Q15910); assay: EZH2 LC-MS assay (LC-Qualified); type: biochemical; settings: (a) LC-Qualified assay
# Method: Representative compounds of the invention were serially and separately diluted 3-fold in DMSO to obtain twelve concentrations. […] Solutions (6 μL) of 80 nM wild type PRC2 (wtPRC2) complex and 60 μM SAM in reaction buffer (20 mM Tris, pH 8.0, 0.1% BSA, 0.01% Triton, 0.5 mM DTT) were added to the wells that were then incubated with the test compound for 20 min. A 6 μL solution of 3 μM of the substrate peptide H3K27me1 (histone H3[21-44]-K27me1-biotin) and 6 μM regulatory peptide H3K27me3 (histone H3[21-44]-K27me3) in reaction buffer was added to initiate each reaction. […] The data were fit to a dose response equation using the program Helios to get the IC50 values of the test compound.
# EZH2 = EZH2 (Homo sapiens (Human), UniProt Q15910); assay: ELISA (H3K27 methylation) assay in G401 cell; type: cell-based; settings: (b) ELISA Qualified assay, 48 h
# Method: Representative compounds of the invention were serially and separately diluted 3-fold in DO to obtain a total of eight or twelve concentrations. Then the compounds were added to G401 cell cultured in 384-well plate at 1:500 dilution to obtain the highest concentration of 20 μM. The cells were further cultured for 48 h before ELISA procedure.
# ELISA protocol: Cell lysates were transferred to the wells of a 384-well plate and the final volume was adjusted to 50 μL per well with PBS. The plate was sealed, centrifuged at 2,000 rpm for 2 min and incubated at 4° C. for about 16 h. The plate was washed with TBST buffer (1×TBS (10×TBS: 24.2 g Tris (Sigma, T6066), 80 g NaCl (Sigma, S3014) to 1 L of water and adjust pH to 7.6 with HCl) with 0.1% Tween-20). Blocking buffer (TBST, 5% BSA; 50 μL per well) was added and the plate was incubated for 1 h at rt. The blocking buffer was removed and primary antibody was added (30 μL per well). […] The primary antibody was incubated in the plate at rt for 1 h. The wells were washed with TBST and incubated with secondary antibody for 1 h at rt.
# After 1 h of incubation at rt, the wells were washed with TBST. […] The signal was read using a PerkinElmer Envision Reader. The H3K27 methylation readouts were normalized using H3 signal and then percentage inhibition was calculated against the samples treated with DO. The data were fit to a dose response curve using the program Helios to get the IC50 values of the test compound.
# Sequence of wild type PRC2 (wtPRC2) complex (Q15910 whole entry): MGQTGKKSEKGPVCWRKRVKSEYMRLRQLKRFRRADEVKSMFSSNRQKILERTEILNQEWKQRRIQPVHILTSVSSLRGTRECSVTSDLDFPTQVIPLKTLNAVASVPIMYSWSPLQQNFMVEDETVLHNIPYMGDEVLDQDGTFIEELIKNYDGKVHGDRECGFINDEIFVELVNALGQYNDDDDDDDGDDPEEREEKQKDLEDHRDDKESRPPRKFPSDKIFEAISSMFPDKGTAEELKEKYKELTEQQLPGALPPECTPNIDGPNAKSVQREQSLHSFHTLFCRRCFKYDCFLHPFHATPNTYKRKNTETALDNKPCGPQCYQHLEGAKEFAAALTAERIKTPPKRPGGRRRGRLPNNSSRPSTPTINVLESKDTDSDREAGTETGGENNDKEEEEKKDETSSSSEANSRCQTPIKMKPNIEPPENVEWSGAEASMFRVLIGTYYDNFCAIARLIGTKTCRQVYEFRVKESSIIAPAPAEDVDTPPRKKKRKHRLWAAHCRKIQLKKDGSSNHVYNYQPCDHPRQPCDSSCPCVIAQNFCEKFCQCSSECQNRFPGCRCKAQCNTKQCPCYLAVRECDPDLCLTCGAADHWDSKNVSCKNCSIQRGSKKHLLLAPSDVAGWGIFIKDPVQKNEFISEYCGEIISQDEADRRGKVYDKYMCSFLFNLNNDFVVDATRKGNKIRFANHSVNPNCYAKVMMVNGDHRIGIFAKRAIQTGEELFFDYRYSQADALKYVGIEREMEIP
# Sequence of wild type PRC2 (wtPRC2) complex (Q15022 whole entry partner): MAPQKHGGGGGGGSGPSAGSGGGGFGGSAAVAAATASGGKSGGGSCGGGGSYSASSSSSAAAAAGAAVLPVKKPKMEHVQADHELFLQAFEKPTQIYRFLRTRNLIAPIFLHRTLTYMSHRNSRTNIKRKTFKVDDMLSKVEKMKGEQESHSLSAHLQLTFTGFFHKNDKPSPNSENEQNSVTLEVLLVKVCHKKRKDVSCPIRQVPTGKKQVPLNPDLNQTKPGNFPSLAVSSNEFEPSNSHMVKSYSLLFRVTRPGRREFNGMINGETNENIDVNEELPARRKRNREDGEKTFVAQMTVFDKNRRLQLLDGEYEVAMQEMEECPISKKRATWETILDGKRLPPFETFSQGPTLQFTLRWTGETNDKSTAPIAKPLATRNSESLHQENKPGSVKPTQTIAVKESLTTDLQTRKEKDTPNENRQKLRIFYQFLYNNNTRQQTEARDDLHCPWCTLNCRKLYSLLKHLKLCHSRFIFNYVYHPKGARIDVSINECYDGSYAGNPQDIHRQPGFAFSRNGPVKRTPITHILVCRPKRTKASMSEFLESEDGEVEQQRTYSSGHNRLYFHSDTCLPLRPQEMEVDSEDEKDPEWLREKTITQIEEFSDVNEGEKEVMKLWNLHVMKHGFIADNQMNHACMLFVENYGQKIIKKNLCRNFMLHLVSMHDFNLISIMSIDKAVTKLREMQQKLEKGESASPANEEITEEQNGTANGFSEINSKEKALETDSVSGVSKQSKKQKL
# Sequence of wild type PRC2 (wtPRC2) complex (O75530 whole entry partner): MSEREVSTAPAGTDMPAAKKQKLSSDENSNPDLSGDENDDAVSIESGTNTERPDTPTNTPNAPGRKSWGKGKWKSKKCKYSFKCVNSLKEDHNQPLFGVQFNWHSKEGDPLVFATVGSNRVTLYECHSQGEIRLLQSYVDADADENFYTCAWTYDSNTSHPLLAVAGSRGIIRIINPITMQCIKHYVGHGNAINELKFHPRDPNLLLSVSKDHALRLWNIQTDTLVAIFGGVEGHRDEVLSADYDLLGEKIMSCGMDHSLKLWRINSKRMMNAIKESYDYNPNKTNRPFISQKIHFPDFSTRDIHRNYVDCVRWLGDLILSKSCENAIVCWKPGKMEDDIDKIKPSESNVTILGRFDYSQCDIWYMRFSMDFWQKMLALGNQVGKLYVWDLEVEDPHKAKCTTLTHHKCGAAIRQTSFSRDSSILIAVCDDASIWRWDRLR
# Sequence of wild type PRC2 (wtPRC2) complex (Q09028 whole entry partner): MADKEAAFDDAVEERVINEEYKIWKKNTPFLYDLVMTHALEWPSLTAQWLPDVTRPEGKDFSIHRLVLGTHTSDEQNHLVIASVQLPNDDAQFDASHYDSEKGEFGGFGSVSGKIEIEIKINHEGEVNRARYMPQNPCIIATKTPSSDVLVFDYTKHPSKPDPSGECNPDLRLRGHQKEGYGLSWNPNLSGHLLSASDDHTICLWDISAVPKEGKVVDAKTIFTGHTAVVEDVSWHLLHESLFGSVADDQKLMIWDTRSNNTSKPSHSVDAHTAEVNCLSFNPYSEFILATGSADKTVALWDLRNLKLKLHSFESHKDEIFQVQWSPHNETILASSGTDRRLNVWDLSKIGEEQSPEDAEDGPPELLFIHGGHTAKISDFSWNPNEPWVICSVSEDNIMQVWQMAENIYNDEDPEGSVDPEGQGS
# Sequence of wild type PRC2 (wtPRC2) complex (Q6ZN18 whole entry partner): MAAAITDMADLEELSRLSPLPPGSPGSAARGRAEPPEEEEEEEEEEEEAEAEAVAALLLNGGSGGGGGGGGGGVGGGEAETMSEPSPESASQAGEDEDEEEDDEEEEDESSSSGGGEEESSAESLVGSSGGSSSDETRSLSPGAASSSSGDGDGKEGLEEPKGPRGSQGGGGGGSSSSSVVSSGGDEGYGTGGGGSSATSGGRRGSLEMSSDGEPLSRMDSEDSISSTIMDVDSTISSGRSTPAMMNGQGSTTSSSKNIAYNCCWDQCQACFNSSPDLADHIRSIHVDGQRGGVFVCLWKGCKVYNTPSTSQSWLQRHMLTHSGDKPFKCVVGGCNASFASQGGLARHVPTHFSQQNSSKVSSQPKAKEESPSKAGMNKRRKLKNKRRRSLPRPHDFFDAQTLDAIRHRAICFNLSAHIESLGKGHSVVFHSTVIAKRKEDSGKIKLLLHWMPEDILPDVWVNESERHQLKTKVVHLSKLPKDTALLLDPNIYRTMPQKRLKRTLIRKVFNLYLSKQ
# Sequence of EZH2 (Q15910 whole entry): as the sequence (Q15910 whole entry) above
# Sequence of EZH2 (Q15022 whole entry partner): as the sequence (Q15022 whole entry partner) above
# Sequence of EZH2 (O75530 whole entry partner): as the sequence (O75530 whole entry partner) above
# Sequence of EZH2 (Q09028 whole entry partner): as the sequence (Q09028 whole entry partner) above
SMILES,IC50 [1] [µM],IC50 (EZH2) [µM]
"O=S1(=O)CCN(Cc2cnc(NC[C@H]3CC[C@H](Nc4ccc5ccnc(Cl)c5n4)CC3)nc2)CC1 [Compound C30, 4-((2-((((1,4-trans)-4-((8-chloro-1,7-naphthyridin-2-yl)amino)cyclohexyl)methyl)amino)pyrimidin-5-yl)methyl)thiomorpholine 1,1-dioxide]",0.017,0.007
"Clc1nccc2ccc(N[C@H]3CC[C@H](CNc4ncc(CNCC5COC5)cn4)CC3)nc12 [Compound C31, 8-chloro-N-((1,4-trans)-4-(((5-(((oxetan-3-ylmethyl)amino)methyl)pyrimidin-2-yl)amino)methyl)cyclohexyl)-1,7-naphthyridin-2-amine]",0.026,0.06
"COC1CC(NCc2cnc(NC[C@H]3CC[C@H](Nc4ccc5ccnc(Cl)c5n4)CC3)nc2)C1 (stereo partly drawn) [Compound C32, 8-chloro-N-((1,4-trans)-4-(((5-(((3-methoxycyclobutyl)amino)methyl)pyrimidin-2-yl)amino)methyl)cyclohexyl)-1,7-naphthyridin-2-amine]",0.079,0.498
"OC1CC(NCc2cnc(NC[C@H]3CC[C@H](Nc4ccc5ccnc(Cl)c5n4)CC3)nc2)C1 (stereo partly drawn) [Compound C33, 3-(((2-((((1,4-trans)-4-((8-chloro-1,7-naphthyridin-2-yl)amino)cyclohexyl)methyl)amino)pyrimidin-5-yl)methyl)amino)cyclobutan-1-ol]",0.042,0.044
"O=C(Cc1cnc(NC[C@H]2CC[C@H](Nc3ccc4ccnc(Cl)c4n3)CC2)nc1)N1CC(O)C1 [Compound C38, 2-(2-((((1,4-trans)-4-((8-chloro-1,7-naphthyridin-2-yl)amino)cyclohexyl)methyl)amino)pyrimidin-5-yl)-1-(3-hydroxyazetidin-1-yl)ethan-1-one]",0.024,0.029
"CN(C)C1CCN(C(=O)Cc2cnc(NC[C@H]3CC[C@H](Nc4ccc5ccnc(Cl)c5n4)CC3)nc2)C1 (stereo partly drawn) [Compound C39, 2-(2-((((1,4-trans)-4-((8-chloro-1,7-naphthyridin-2-yl)amino)cyclohexyl)methyl)amino)pyrimidin-5-yl)-1-(3-(dimethylamino)pyrrolidin-1-yl)ethan-1-one]",0.081,0.02
"O=C(Cc1cnc(NC[C@H]2CC[C@H](Nc3ccc4ccnc(Cl)c4n3)CC2)nc1)N1CCN(CCO)CC1 [Compound C40, 2-(2-((((1,4-trans)-4-((8-chloro-1,7-naphthyridin-2-yl)amino)cyclohexyl)methyl)amino)pyrimidin-5-yl)-1-(4-(2-hydroxyethyl)piperazin-1-yl)ethan-1-one]",0.046,0.028
"O=C(Cc1cnc(NC[C@H]2CC[C@H](Nc3ccc4ccnc(Cl)c4n3)CC2)nc1)N1CCNCC1 [Compound C41, 2-(2-((((1,4-trans)-4-((8-chloro-1,7-naphthyridin-2-yl)amino)cyclohexyl)methyl)amino)pyrimidin-5-yl)-1-(piperazin-1-yl)ethan-1-one]",0.035,0.031
"CN1CCN(C(=O)Cc2cnc(NC[C@H]3CC[C@H](Nc4ccc5ccnc(Cl)c5n4)CC3)nc2)CC1 [Compound C43, 2-(2-((((1,4-trans)-4-((8-chloro-1,7-naphthyridin-2-yl)amino)cyclohexyl)methyl)amino)pyrimidin-5-yl)-1-(4-methylpiperazin-1-yl)ethan-1-one]",0.057,0.067
"O=C(Cc1cnc(NC[C@H]2CC[C@H](Nc3ccc4ccnc(Cl)c4n3)CC2)nc1)NC1CCC1 [Compound C44, 2-(2-((((1,4-trans)-4-((8-chloro-1,7-naphthyridin-2-yl)amino)cyclohexyl)methyl)amino)pyrimidin-5-yl)-N-cyclobutylacetamide]",0.054,0.163
"OCCc1cnc(NC[C@H]2CC[C@H](Nc3ccc4ccnc(Cl)c4n3)CC2)nc1 [Compound C46, 2-(2-((((1,4-trans)-4-((8-chloro-1,7-naphthyridin-2-yl)amino)cyclohexyl)methyl)amino)pyrimidin-5-yl)ethan-1-ol]",0.012,0.013
"CC1(NCCc2cnc(NC[C@H]3CC[C@H](Nc4ccc5ccnc(Cl)c5n4)CC3)nc2)COC1 [Compound C47, 8-chloro-N-((1,4-trans)-4-(((5-(2-((3-methyloxetan-3-yl)amino)ethyl)pyrimidin-2-yl)amino)methyl)cyclohexyl)-1,7-naphthyridin-2-amine]",0.051,0.032
"Clc1nccc2ccc(N[C@H]3CC[C@H](CNc4ncc(CCNC5COC5)cn4)CC3)nc12 [Compound C48, 8-chloro-N-((1,4-trans)-4-(((5-(2-(oxetan-3-ylamino)ethyl)pyrimidin-2-yl)amino)methyl)cyclohexyl)-1,7-naphthyridin-2-amine]",0.039,0.027
"CCN(CCC#N)C(=O)Cc1cnc(NC[C@H]2CC[C@H](Nc3ccc4ccnc(Cl)c4n3)CC2)nc1 [Compound C50, 2-(2-((((1,4-trans)-4-((8-chloro-1,7-naphthyridin-2-yl)amino)cyclohexyl)methyl)amino)pyrimidin-5-yl)-N-(2-cyanoethyl)-N-ethylacetamide]",0.023,0.027
"O=C(NCc1cnc(NC[C@H]2CC[C@H](Nc3ccc4ccnc(Cl)c4n3)CC2)nc1)C1CCN1 (stereo partly drawn) [Compound C58, N-((2-((((1,4-trans)-4-((8-chloro-1,7-naphthyridin-2-yl)amino)cyclohexyl)methyl)amino)pyrimidin-5-yl)methyl)azetidine-2-carboxamide]",0.038,0.117
"O=C(NCc1cnc(NC[C@H]2CC[C@H](Nc3ccc4ccnc(Cl)c4n3)CC2)nc1)C1COC1 [Compound C59, N-((2-((((1,4-trans)-4-((8-chloro-1,7-naphthyridin-2-yl)amino)cyclohexyl)methyl)amino)pyrimidin-5-yl)methyl)oxetane-3-carboxamide]",0.045,0.033
"CNc1nccc2ccc(N[C@H]3CC[C@H](CNc4ncc(C#N)cn4)CC3)nc12 [Compound C60, 2-((((1,4-trans)-4-((8-(methylamino)-1,7-naphthyridin-2-yl)amino)cyclohexyl)methyl)amino)pyrimidine-5-carbonitrile]",0.022,0.021
"CNc1nccc2ccc(N[C@H]3CC[C@H](CNc4ncc(N)cn4)CC3)nc12 [Compound C62, N^2-((1,4-trans)-4-(((5-aminopyrimidin-2-yl)amino)methyl)cyclohexyl)-N^8-methyl-1,7-naphthyridine-2,8-diamine]",0.149,0.031
"CNc1nccc2ccc(N[C@H]3CC[C@H](CNc4ncc(NC(C)=O)cn4)CC3)nc12 [Compound C63, N-(2-((((1,4-trans)-4-((8-(methylamino)-1,7-naphthyridin-2-yl)amino)cyclohexyl)methyl)amino)pyrimidin-5-yl)acetamide]",0.096,0.037
"O=C1OCCN1c1cnc(NC[C@H]2CC[C@H](Nc3ccc4ccnc(Cl)c4n3)CC2)nc1 [Compound C64, 3-(2-((((1,4-trans)-4-((8-chloro-1,7-naphthyridin-2-yl)amino)cyclohexyl)methyl)amino)pyrimidin-5-yl)oxazolidin-2-one]",0.053,0.054
"COC(=O)N(C)c1cnc(NC[C@H]2CC[C@H](Nc3ccc4ccnc(Cl)c4n3)CC2)nc1 [Compound C65, Methyl (2-((((1,4-trans)-4-((8-chloro-1,7-naphthyridin-2-yl)amino)cyclohexyl)methyl)amino)pyrimidin-5-yl)(methyl)carbamate]",0.059,0.065
"Nc1cnc(NC[C@H]2CC[C@H](Nc3ccc4ccnc(OC(F)F)c4n3)CC2)nc1 [Compound C66, N^2-(((1,4-trans)-4-((8-(difluoromethoxy)-1,7-naphthyridin-2-yl)amino)cyclohexyl)methyl)pyrimidine-2,5-diamine]",0.204,0.16
"Clc1nccc2ccc(N[C@H]3CC[C@H](CNc4ncc(-c5nnc[nH]5)cn4)CC3)nc12 [Compound C67, N-((1,4-trans)-4-(((5-(4H-1,2,4-triazol-3-yl)pyrimidin-2-yl)amino)methyl)cyclohexyl)-8-chloro-1,7-naphthyridin-2-amine]",0.029,0.036
"CC(CO)Oc1cnc(NC[C@H]2CC[C@H](Nc3ccc4ccnc(Cl)c4n3)CC2)nc1 (stereo partly drawn) [Compound C68, 2-((2-((((1,4-trans)-4-((8-chloro-1,7-naphthyridin-2-yl)amino)cyclohexyl)methyl)amino)pyrimidin-5-yl)oxy)propan-1-ol]",0.049,0.018
